# Measured values published in US20230085307A1, “PYRIDAZINONE COMPOUND AND HERBICIDE” (NISSAN CHEMICAL CORPORATION, priority 2019, published 2023).
# Columns and labels:
# [1] = test system: late watergrass; test: Test Example 1: herbicidal activity, application before weed generation under submerged conditions (Table 16, symbol A); assay type: in vivo, late watergrass (Echinochloa oryzicola); settings: 320 g/ha applied herbicide
# Outline: (§1)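 Submerged Wagner pots (alluvial soil, 4 cm water) sown with weed seeds and planted with 2.5-leaf rice seedlings; emulsifiable concentrate diluted in water applied to water surface on sowing day. Held in greenhouse at 25-30 °C; injury scored 0-5 by herbicidal rate after three weeks.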
# [2] = test system: Japanese bulrush; test: Test Example 1: herbicidal activity, application before weed generation under submerged conditions (Table 16, symbol B); assay type: in vivo, Japanese bulrush (Schoenoplectus juncoides); settings: 320 g/ha applied herbicide
# Outline: as §1
# [3] = test system: oval-leafed pondweed; test: Test Example 1: herbicidal activity, application before weed generation under submerged conditions (Table 16, symbol C); assay type: in vivo, oval-leafed pondweed (Monochoria vaginalis); settings: 320 g/ha applied herbicide
# Outline: as §1
# [4] = test system: barnyard grass; test: Test Example 3: herbicidal effect by foliage application, Wagner pot (Table 18, symbol H); assay type: in vivo, barnyard grass (Echinochloa crus-galli)
# Outline: (§2)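 Plants were sown in alluvial soil held under 0.1–0.5 cm standing water and grown 14 days in a greenhouse at 25–30 °C. An emulsifiable formulation, water-diluted to the set dose, was then sprayed onto the foliage, and effects were scored three weeks later using previously defined criteria.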
# [5] = test system: Chinese sprangletop; test: Test Example 3: herbicidal effect by foliage application, Wagner pot (Table 18, symbol D); assay type: in vivo, chinese sprangletop (Leptochloa chinensis)
# Outline: as §2
# [6] = test system: rice flat sedge; test: Test Example 3: herbicidal effect by foliage application, Wagner pot (Table 18, symbol E); assay type: in vivo, rice flat sedge (Cyperus iria)
# Outline: as §2
# [7] = test system: southern crabgrass; test: Test Example 4: herbicidal effect by soil treatment (Table 19, symbol F); assay type: in vivo, southern crabgrass (Digitaria ciliaris); settings: amount of applied herbicide 320 g/ha
# Outline: (§3)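 Applied as a water-diluted emulsion, the compound was sprayed onto soil covering newly sown seeds. Evaluation came three weeks after application, in a greenhouse held at 25° C. to 30° C.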
# [8] = test system: green foxtail; test: Test Example 4: herbicidal effect by soil treatment (Table 19, symbol G); assay type: in vivo, green foxtail (Setaria viridis); settings: amount of applied herbicide 320 g/ha
# Outline: as §3
# [9] = test system: barnyard grass; test: Test Example 4: herbicidal effect by soil treatment (Table 19, symbol H); assay type: in vivo, barnyard grass (Echinochloa crus-galli); settings: amount of applied herbicide 320 g/ha
# Outline: as §3
# [10] = test system: wild oat; test: Test Example 4: herbicidal effect by soil treatment (Table 19, symbol I); assay type: in vivo, wild oat (Avena fatua); settings: amount of applied herbicide 320 g/ha
# Outline: as §3
# [11] = test system: Italian ryegrass; test: Test Example 4: herbicidal effect by soil treatment (Table 19, symbol K); assay type: in vivo, Italian ryegrass (Lolium multiflorum); settings: amount of applied herbicide 320 g/ha
# Outline: as §3
# [12] = test system: windgrass; test: Test Example 4: herbicidal effect by soil treatment (Table 19, symbol L); assay type: in vivo, windgrass (Apera spica-venti); settings: amount of applied herbicide 320 g/ha
# Outline: as §3
# [13] = test system: velvetleaf; test: Test Example 4: herbicidal effect by soil treatment (Table 19, symbol M); assay type: in vivo, velvetleaf (Abutilon theophrasti); settings: amount of applied herbicide 320 g/ha
# Outline: as §3
# [14] = test system: redroot pigweed; test: Test Example 4: herbicidal effect by soil treatment (Table 19, symbol N); assay type: in vivo, redroot pigweed (Amaranthus retroflexus); settings: amount of applied herbicide 320 g/ha
# Outline: as §3
# [15] = test system: lambsquarters; test: Test Example 4: herbicidal effect by soil treatment (Table 19, symbol O); assay type: in vivo, lambsquarters (Chenopodium album); settings: amount of applied herbicide 320 g/ha
# Outline: as §3
# [16] = test system: false cleavers; test: Test Example 4: herbicidal effect by soil treatment (Table 19, symbol Q); assay type: in vivo, false cleavers (Galium spurium); settings: amount of applied herbicide 320 g/ha
# Outline: as §3
# [17] = test system: southern crabgrass; test: Test Example 5: herbicidal effect by foliage application, plastic box (Table 20, symbol F); assay type: in vivo, southern crabgrass (Digitaria ciliaris); settings: evaluated three weeks after application
# Outline: (§4)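 Sow seeds spot-wise in sterilized diluvial soil; cover with ~1.5 cm soil. Grow 14 days in greenhouse, 25° C. to 30° C. Spray foliage with emulsion diluted to predetermined amount. Rate effect after 3 weeks.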
# [18] = test system: green foxtail; test: Test Example 5: herbicidal effect by foliage application, plastic box (Table 20, symbol G); assay type: in vivo, green foxtail (Setaria viridis); settings: evaluated three weeks after application
# Outline: as §4
# [19] = test system: barnyard grass; test: Test Example 5: herbicidal effect by foliage application, plastic box (Table 20, symbol H); assay type: in vivo, barnyard grass (Echinochloa crus-galli); settings: evaluated three weeks after application
# Outline: as §4
# [20] = test system: wild oat; test: Test Example 5: herbicidal effect by foliage application, plastic box (Table 20, symbol I); assay type: in vivo, wild oat (Avena fatua); settings: evaluated three weeks after application
# Outline: as §4
# [21] = test system: blackgrass; test: Test Example 5: herbicidal effect by foliage application, plastic box (Table 20, symbol J); assay type: in vivo, blackgrass (Alopecurus myosuroides); settings: evaluated three weeks after application
# Outline: as §4
# [22] = test system: Italian ryegrass; test: Test Example 5: herbicidal effect by foliage application, plastic box (Table 20, symbol K); assay type: in vivo, Italian ryegrass (Lolium multiflorum); settings: evaluated three weeks after application
# Outline: as §4
# [23] = test system: windgrass; test: Test Example 5: herbicidal effect by foliage application, plastic box (Table 20, symbol L); assay type: in vivo, windgrass (Apera spica-venti); settings: evaluated three weeks after application
# Outline: as §4
# [24] = test system: velvetleaf; test: Test Example 5: herbicidal effect by foliage application, plastic box (Table 20, symbol M); assay type: in vivo, velvetleaf (Abutilon theophrasti); settings: evaluated three weeks after application
# Outline: as §4
# [25] = test system: redroot pigweed; test: Test Example 5: herbicidal effect by foliage application, plastic box (Table 20, symbol N); assay type: in vivo, redroot pigweed (Amaranthus retroflexus); settings: evaluated three weeks after application
# Outline: as §4
# [26] = test system: lambsquarters; test: Test Example 5: herbicidal effect by foliage application, plastic box (Table 20, symbol O); assay type: in vivo, lambsquarters (Chenopodium album); settings: evaluated three weeks after application
# Outline: as §4
# [27] = test system: chickweed; test: Test Example 5: herbicidal effect by foliage application, plastic box (Table 20, symbol P); assay type: in vivo, common chickweed (Stellaria media); settings: evaluated three weeks after application
# Outline: as §4
# [28] = test system: persian speedwell; test: Test Example 5: herbicidal effect by foliage application, plastic box (Table 20, symbol R); assay type: in vivo, Persian speedwell (Veronica persica); settings: evaluated three weeks after application
# Outline: as §4
# [29] = test system: blackgrass; test: Test Example 4: herbicidal effect by soil treatment (Table 19, symbol J); assay type: in vivo, blackgrass (Alopecurus myosuroides); settings: amount of applied herbicide 320 g/ha
# Outline: as §3
# [30] = test system: chickweed; test: Test Example 4: herbicidal effect by soil treatment (Table 19, symbol P); assay type: in vivo, common chickweed (Stellaria media); settings: amount of applied herbicide 320 g/ha
# Outline: as §3
# [31] = test system: persian speedwell; test: Test Example 4: herbicidal effect by soil treatment (Table 19, symbol R); assay type: in vivo, Persian speedwell (Veronica persica); settings: amount of applied herbicide 320 g/ha
# Outline: as §3
# [32] = amount of applied herbicide 320 g/ha
# [33] = foliage application, AAH 320 g/ha
# [34] = 320 g/ha, foliage application after 14-day growth
compound,measurement,setting,value
Cc1nn(C)c(=O)c(-c2c(-c3ccc(COCC(F)(F)F)cc3)sc3ccc(F)cc23)c1O [2-315],Herbicidal effect on A: late watergrass (grade 0-5),[1],4 (Herbicidal rate of 70% or more and less than 90%)
same,Herbicidal effect on B: Japanese bulrush (grade 0-5),[2],0 (Herbicidal rate of 5% or less (almost no effect))
same,Herbicidal effect on C: oval-leafed pondweed (grade 0-5),[3],0 (Herbicidal rate of 5% or less (almost no effect))
same,herbicidal effect on H: barnyard grass,[4]; [32],5 (Herbicidal rate of 90% or more (almost completely withered))
same,herbicidal effect on D: Chinese sprangletop,[5]; [32],3 (Herbicidal rate of 40% or more and less than 70%)
same,herbicidal effect on E: rice flat sedge,[6]; [32],5 (Herbicidal rate of 90% or more (almost completely withered))
same,herbicidal effect on F: southern crabgrass,[7],2 (Herbicidal rate of 20% or more and less than 40%)
same,herbicidal effect on G: green foxtail,[8],3 (Herbicidal rate of 40% or more and less than 70%)
same,herbicidal effect on H: barnyard grass,[9],3 (Herbicidal rate of 40% or more and less than 70%)
same,herbicidal effect on I: wild oat,[10],0 (Herbicidal rate of 5% or less (almost no effect))
same,herbicidal effect on K: Italian ryegrass,[11],4 (Herbicidal rate of 70% or more and less than 90%)
same,herbicidal effect on L: windgrass,[12],0 (Herbicidal rate of 5% or less (almost no effect))
same,herbicidal effect on M: velvetleaf,[13],4 (Herbicidal rate of 70% or more and less than 90%)
same,herbicidal effect on N: redroot pigweed,[14],5 (Herbicidal rate of 90% or more (almost completely withered))
same,herbicidal effect on O: lambsquarters,[15],5 (Herbicidal rate of 90% or more (almost completely withered))
same,herbicidal effect on Q: false cleavers,[16],5 (Herbicidal rate of 90% or more (almost completely withered))
same,"F: southern crabgrass, herbicidal effect (criteria 0-5)",[17]; [33],4 (Herbicidal rate of 70% or more and less than 90%)
same,"G: green foxtail, herbicidal effect (criteria 0-5)",[18]; [33],5 (Herbicidal rate of 90% or more (almost completely withered))
same,"H: barnyard grass, herbicidal effect (criteria 0-5)",[19]; [33],5 (Herbicidal rate of 90% or more (almost completely withered))
same,"I: wild oat, herbicidal effect (criteria 0-5)",[20]; [33],0 (Herbicidal rate of 5% or less (almost no effect))
same,"J: blackgrass, herbicidal effect (criteria 0-5)",[21]; [33],5 (Herbicidal rate of 90% or more (almost completely withered))
same,"K: Italian ryegrass, herbicidal effect (criteria 0-5)",[22]; [33],5 (Herbicidal rate of 90% or more (almost completely withered))
same,"L: windgrass, herbicidal effect (criteria 0-5)",[23]; [33],5 (Herbicidal rate of 90% or more (almost completely withered))
same,"M: velvetleaf, herbicidal effect (criteria 0-5)",[24]; [33],5 (Herbicidal rate of 90% or more (almost completely withered))
same,"N: redroot pigweed, herbicidal effect (criteria 0-5)",[25]; [33],5 (Herbicidal rate of 90% or more (almost completely withered))
same,"O: lambsquarters, herbicidal effect (criteria 0-5)",[26]; [33],5 (Herbicidal rate of 90% or more (almost completely withered))
same,"P: chickweed, herbicidal effect (criteria 0-5)",[27]; [33],5 (Herbicidal rate of 90% or more (almost completely withered))
same,"R: persian speedwell, herbicidal effect (criteria 0-5)",[28]; [33],5 (Herbicidal rate of 90% or more (almost completely withered))
Cc1nn(C)c(=O)c(-c2c(-c3ccc(C#N)cc3)sc3c(F)cccc23)c1O [4-052],herbicidal effect on barnyard grass (H),[4]; 320 g/ha,5 (Herbicidal rate of 90% or more (almost completely withered))
same,herbicidal effect on Chinese sprangletop (D),[5]; 320 g/ha,3 (Herbicidal rate of 40% or more and less than 70%)
same,herbicidal effect on rice flat sedge (E),[6]; 320 g/ha,4 (Herbicidal rate of 70% or more and less than 90%)
same,"Herbicidal effect by soil treatment, F: southern crabgrass",[7],0 (Herbicidal rate of 5% or less (almost no effect))
same,"Herbicidal effect by soil treatment, G: green foxtail",[8],0 (Herbicidal rate of 5% or less (almost no effect))
same,"Herbicidal effect by soil treatment, H: barnyard grass",[9],0 (Herbicidal rate of 5% or less (almost no effect))
same,"Herbicidal effect by soil treatment, I: wild oat",[10],0 (Herbicidal rate of 5% or less (almost no effect))
same,"Herbicidal effect by soil treatment, J: blackgrass",[29],0 (Herbicidal rate of 5% or less (almost no effect))
same,"Herbicidal effect by soil treatment, K: Italian ryegrass",[11],0 (Herbicidal rate of 5% or less (almost no effect))
same,"Herbicidal effect by soil treatment, L: windgrass",[12],0 (Herbicidal rate of 5% or less (almost no effect))
same,"Herbicidal effect by soil treatment, M: velvetleaf",[13],1 (Herbicidal rate of 5% or more and less than 20%)
same,"Herbicidal effect by soil treatment, N: redroot pigweed",[14],4 (Herbicidal rate of 70% or more and less than 90%)
same,"Herbicidal effect by soil treatment, O: lambsquarters",[15],2 (Herbicidal rate of 20% or more and less than 40%)
same,"Herbicidal effect by soil treatment, P: chickweed",[30],3 (Herbicidal rate of 40% or more and less than 70%)
same,"Herbicidal effect by soil treatment, Q: false cleavers",[16],0 (Herbicidal rate of 5% or less (almost no effect))
same,"Herbicidal effect by soil treatment, R: persian speedwell",[31],4 (Herbicidal rate of 70% or more and less than 90%)
same,herbicidal effect on F: southern crabgrass (evaluation grade 0-5),[17]; [34],0 (Herbicidal rate of 5% or less (almost no effect))
same,herbicidal effect on G: green foxtail (evaluation grade 0-5),[18]; [34],5 (Herbicidal rate of 90% or more (almost completely withered))
same,herbicidal effect on H: barnyard grass (evaluation grade 0-5),[19]; [34],5 (Herbicidal rate of 90% or more (almost completely withered))
same,herbicidal effect on I: wild oat (evaluation grade 0-5),[20]; [34],0 (Herbicidal rate of 5% or less (almost no effect))
same,herbicidal effect on J: blackgrass (evaluation grade 0-5),[21]; [34],0 (Herbicidal rate of 5% or less (almost no effect))
same,herbicidal effect on K: Italian ryegrass (evaluation grade 0-5),[22]; [34],3 (Herbicidal rate of 40% or more and less than 70%)
same,herbicidal effect on L: windgrass (evaluation grade 0-5),[23]; [34],0 (Herbicidal rate of 5% or less (almost no effect))
same,herbicidal effect on M: velvetleaf (evaluation grade 0-5),[24]; [34],5 (Herbicidal rate of 90% or more (almost completely withered))
same,herbicidal effect on N: redroot pigweed (evaluation grade 0-5),[25]; [34],5 (Herbicidal rate of 90% or more (almost completely withered))
same,herbicidal effect on O: lambsquarters (evaluation grade 0-5),[26]; [34],4 (Herbicidal rate of 70% or more and less than 90%)
same,herbicidal effect on P: chickweed (evaluation grade 0-5),[27]; [34],5 (Herbicidal rate of 90% or more (almost completely withered))
same,herbicidal effect on R: persian speedwell (evaluation grade 0-5),[28]; [34],5 (Herbicidal rate of 90% or more (almost completely withered))
